# Legend:
# [1] = Stability of compound A and its salts, content by HPLC; type: physicochemical; settings: for Content by HPLC after storage: raw material purity 98.6%
# Experimental: (1) Content Determination Method
# With a Octadecyl silane chemically bonded silica as bulking agent and 0.1% aqueous solution of ammonia-acetonitrile (65:35) as mobile phase, eluted in gradient mode at detection wavelength of 230 nm. Appropriate amount of test sample and reference solution was taken, then water was added to dissolve which to form solutions every 1 ml containing 0.2 mg of them respectively. The test sample solution and reference solution 10 μl was respectively taken and injected into the liquid chromatograph. chromatograph chart was recorded, and calculated by peak area according to the external standard method.
# The stability of different types of the pharmaceutically acceptable salts of compound A under different conditions
# [2] = system: genetic obese Wistar rats with diabetes; assay: Effects of the 6 salts in genetic obese Wistar rats with diabetes (14 days); type: in vivo, rat; settings: for Hemoglobin (hemoglobin A1) / Plasma glucose: male Wistar fat rats, 10 mg/kg/day p.o. in feed, mean ± SD, n=5-6
# Experimental: 14 to 19 week-old male Wistar fat rats were divided into five groups, each to group 5 to 6, and they were respectively administered the 6 salts of compound A (each 10 mg/kg weight/day, p.o.) which were mixed in commercial feed at a ratio of […] for 14 days. The blood was taken from tail vein, a commercial kits (NC-ROPET, Nippon Chemiphar CO.) was used to measure plasma glucose and hemoglobin A1 by enzymatic is method. The results were expressed as mean value of each group (n=5-6)±standard deviation and analyzed by Dunnett's test which were shown in table 2. A significance level of 1% was used.
# [3] = system: genetic obese Wistar rats with diabetes; assay: Oral glucose tolerance test in genetic obese Wistar rats with diabetes; type: in vivo, rat; settings: for Plasma glucose: 30 mg/kg/day p.o. for 7 days, mean ± SD
# Experimental: 13˜14 week-old male fat rats were divided into five groups, each group five. They were respectively administered the 6 salts of compound A (each 30 mg/kg/day, p.o.) for 7 days. After overnight fasting, oral glucose tolerance tests were conducted immidiately (2 g glucose/kg/5 ml, p.o.). Before and 120 and 240 mins after the glucose tolerance test, blood was collected from the tail vein, and plasma glucose was analyzed by enzymatic method (Encore Chemical System; Baker). Results were expressed as mean value of each group (n=5-6)±standard deviation analyzed by Dunnett's test which were shown in table 3.
# [4] = Absorption tests in rats of different salts (pharmacokinetics); settings: rat, 6.0 mg/kg (by base) by gavage; for t1/2: 0.5% CMC-Na suspension
# Experimental: (§1) 16 healthy male rats weighing 200˜220 g were randomly divided into four groups. […] The plasma was separated, preserved for test under −20° C. The blood concentration was tested by HPLC-Tandem Mass Spectrum.
# in vivo = settings: male, rat, po, 6 mg/kg
# Experimental: as §1
# [5] = 0 min (before glucose load 2 g/kg p.o.)
# [6] = 120 min after glucose load 2 g/kg p.o.
# [7] = 240 min after glucose load 2 g/kg p.o.
"Content by HPLC after storage ([1]; 40° C., 10 days) [%]","Content by HPLC after storage ([1]; 60° C., 10 days) [%]","Content by HPLC after storage ([1]; Light, 10 days) [%]","Content by HPLC after storage ([1]; RH60%, 25° C., nine months) [%]","Content by HPLC after storage ([1]; RH75%, 40° C., six months) [%]",AUC0-t [4] [ng·h/mL],AUC0-∞ [4] [ng·h/mL],CL/F [4] [mL/min/kg],Cmax [4] [ng/mL],MRT [4] [h],Tmax [4] [h],t1/2 [4] [h],SMILES,Hemoglobin (hemoglobin A1) [2],Plasma glucose [2],"Plasma glucose [3, 5] [mg/dL]","Plasma glucose [3, 6] [mg/dL]","Plasma glucose [3, 7] [mg/dL]",other results
98.7,98.2,98.1,97.5,97.7,317,319,348,148,1.86,0.63,1.07,"COC(=O)c1nc(C(F)(F)F)n2c1CN(C(=O)C[C@H](N)Cc1cc(F)c(F)cc1F)CC2.Cl [Hydrochloride of compound A, hydrochloride of (R)-7-[3-amino-4-(2,4,5-trifluoro-phenyl)-butyryl]-3-trifluoromethyl-5,6,7,8-tetrahydro-imidazo[1,5-a]pyrazine-1-carboxylic acid methyl ester]",4.5 ± 0.5,165 ± 13,109 ± 5,116 ± 7,106 ± 3,"Stability test result in words ([1]; conclusion over all storage conditions): most satisfying; Effect on blood glucose and hemoglobin in words ([2]; Wistar fat rats, 10 mg/kg/day): reduce the concentration of blood glucose and hemoglobin obviously; Effect on increase of blood sugar after the glucose tolerance test in words ([3]; 30 mg/kg/day p.o., 7 days): significantly inhibited the increase of blood sugar"
96.7,96.5,97.6,95.6,95.4,274,275,397,133,1.61,0.88,0.87,COC(=O)c1nc(C(F)(F)F)n2c1CN(C(=O)CC(N)Cc1cc(F)c(F)cc1F)CC2.CS(=O)(=O)O (stereo not shown) [Mesylate of compound A],5.8 ± 0.4,287 ± 34,108 ± 8,115 ± 9,92 ± 7,–
95.2,95.7,95.2,93.3,92.2,–,–,–,–,–,–,–,"COC(=O)c1nc(C(F)(F)F)n2c1CN(C(=O)C[C@H](N)Cc1cc(F)c(F)cc1F)CC2 [Compound A, (R)-7-[3-amino-4-(2,4,5-trifluoro-phenyl)-butyryl]-3-trifluoromethyl-5,6,7,8-tetrahydro-imidazo[1,5-a]pyrazine-1-carboxylic acid methyl ester]",–,–,–,–,–,AUC0-t (in vivo): 409 ng·h/mL; AUC(0-inf) (in vivo): 425 ng·h/mL; CL/F (in vivo): 545 mL/min/kg; Cmax (in vivo): 242 ng/mL; MRT (in vivo): 1.96 h; Tmax (in vivo): 0.5 h; half-life (in vivo): 1.54 h

# Reference: US8618104B2, “Salts of methyl (R)-7-[3-amino-4-(2,4,5-trifluoro-phenyl)-butyryl]-3-trifluoromethyl-5,6,7,8-tetrahydro-imidazo[1,5-A]pyrazine-1-carboxylate” (Jiangsu Hengrui Medicine Co., Ltd., priority 2009, dated 2013)
